US20120302530A1, “23-HYDROXY-BETULINIC ACID DERIVATIVES, PREPARATION METHODS AND USES THEREOF” (priority 2009, published 2012)
Read-outs that look alike come from different tables or passages of the source.

Tests used:
normal person PBMC = assay: Toxicity to PBMC cells (MTT, day 7); format: cell-based, human; conditions: day 7, MTT
Description: (§1) (2) Toxicity of compounds zhangnan-5, zhangnan-7 and zhangnan-8 to C8166 and PBMC cells:
(§2) C8166 (human T cell line) and PBM (using lymphocyte isolation liquid to separate from normal human peripheral blood, and adhered mononuclear cell separated from PBMC) cells in exponential phase are taken. The cells are resuspended after centrifugal (1000 r•min-1, 10 min), and the concentrations are adjusted to 4×10^5/ml and 2×10^6/ml. The test samples are double diluted on the 96-hole cell culture plate. In total 6 gradients are set, each having 3 duplicate holes. In addition, positive control group and cell control group are set. Upon adding cell suspended liquid, the test samples are placed in incubator of 370C and 5% CO2 for incubation. On the seventh (7th) day, MTT method is used to determine toxicity of the samples to cells.
(§3) Inhibition ratio of cell growth (%)=(1−experimental hole OD value/control hole (OD value)×100%

HIV-1Ada-M = assay: ELISA of HIV-1Ada-M p24 antigen expression in PBMC; format: cell-based; conditions: for therapeutic index TI: HIV-1Ada-M p24, PBMC, TI=IC50/EC50
From the text: (4) Quantitative Enzyme Linked Immunoadsorbent method (EIISA) detecting inhibiting effects of compounds to virus HIV-1Ada-Mp24 expression: (see JIANG, Haiou; WANG, Xu; L I, Rurun; CHEN, Dagang; B I, Kunlong, Experimental Research on Recipe Sanhuangsan Capsule Resisting AIDS Virus in Vitro, [J], Shandong Journal of Traditional Chinese medicine, 2005.8 (1):21-26).
Multi-heads sample injector is used to conduct triple dilution to the sample on the 96-hole culture plate. There are 6 dilutions, in which each dilution has 3 duplicate holes, and each hole is 100 ul. […] On the 96-hole flat culture plate, each hole is added with 25 ul virus stock solution containing 1000˜5000 pg/well P24 antigen, which is sufficiently blended. 75 ul mononuclear cell PBMC suspension liquid is added (3×10^5 cell numbers/hole). Upon placing in incubator of 37° C., 5% CO2 to the third day, 100 ul of culture medium is added to each hole. On the 7th day, cell culture supernatant is collected for p24 antigen test. According to p24 kit description, ELISA method is used to measure the virus HIV-1 p24 antigen concentration of each sample cell culture hole supernatant. The following formula is used to calculate the inhibition ratio of sample to virus.
Inhibition ratio of sample to virus p24 antigen (%)=(1−experimental hole OD value/cell+virus control hole OD value)×100%. Reed and Mueneh method is used to calculate EC50 of the test sample, and to further calculate the therapeutic index (TI) (TI=IC50/EC50). […] The positive control SCH-C, 23-hydroxyl-betulinic acid, compounds zhangnan-5, zhangnan-7 and zhangnan-8 all reach an inhibition ratio above 50% within the tested range. The positive control SCH-C inhibits HIV-1Ada-M p24 antigen expression. […] In addition, the inhibition effect to HIV-1Ada-M has significant dose-effect relationship with its concentration.

[1] = test system: C8166 (human T cell line); assay: Toxicity to C8166 cells (MTT, day 7); format: cell-based; conditions: C8166, day 7, MTT
Description: as §1, §2, §3

HIV-1IIIB = assay: Inhibition of HIV-1IIIB induced syncytium formation in C8166 cells; format: cell-based; conditions: for therapeutic index TI: HIV-1IIIB syncytium, C8166, TI=IC50/EC50; for EC50: HIV-1IIIB, C8166 cells, third day after infection
From the text: (3) The inhibition effects of compounds zhangnan-5, zhangnan-7 and zhangnan-8 to virus HIV-1IIIB inducing C8166 cell to form syncytium: (see JIANG, Haiou; WANG, Xu; L I, Rurun; CHEN, Dagang; B I, Kunlong, Experimental Research on Recipe Sanhuangsan Capsule for Resisting AIDS virus in Vitro, [J]. Shandong Journal of Traditional Chinese medicine, 2005.8 (1):21-26).
The test sample is double diluted with culture medium on the 96-hole flat culture plate. There are 8 dilutions in total. Each hole 100 ul has 2 duplicate holes. In addition, there are positive control group, cell control group and virus control group. 80 ul C8166 cell of 4×10^5/ml is added into each hole, and then 20 ul virus HIV-1IIIB supernatant is added into each hole. The final volume of each hole is 200 ul. The sample is placed in incubator of 370C, 5% CO2 for cultivation. […] Under the inverted microscope, the number of syncytium formed by virus HIV-1IIIB inducing C8166 cell is counted. […] The following formula is used to calculate the inhibition ratio of the sample to syncytium.
Inhibition ratio formed by syncytium (%)=(1−experimental hole syncytium number/control hole syncytium number)×100%

[2] = when even reaching 500 mg/kg; cited from earlier work

EC50 (HIV-1IIIB) [µM]	Compound	therapeutic index TI (HIV-1Ada-M)	therapeutic index TI (HIV-1IIIB)	other results
1.2 ± 0.23	C=C(C)[C@@H]1CC[C@]2(C(=O)O)CC[C@]3(C)[C@H](CC[C@@H]4[C@@]5(C)CC[C@H](O)[C@@](C)(CO)[C@@H]5CC[C@]43C)[C@@H]12 [23-hydroxyl-betulinic acid, reference compound]	7.8	13	IC50 (normal person PBMC): 14.9 ± 3.46 µM; EC50 (HIV-1Ada-M; HIV-1Ada-M, PBMC, 7th day, ELISA, read-out: EC50, inhibition of p24 antigen expression): 1.9 ± 0.39 µM; IC50 ([1]; read-out: IC50 (50% inhibition concentration) to C8166 cell): 15.1 ± 3.57 µM
1.39	Cc1cn([C@H]2C[C@H](N=[N+]=[N-])[C@@H](CO)O2)c(=O)[nH]c1=O [AZT, reference compound]	–	2473	IC50 ([1]; positive control, read-out: toxicity to 50% of C8166 cells): 3440 µM
–	C=C(C)[C@@H]1CC[C@]2(C(=O)O)CC[C@]3(C)[C@H](CC[C@@H]4[C@@]5(C)CC[C@H](O)C(C)(C)[C@@H]5CC[C@]43C)[C@@H]12 [Betulinic acid, 3β-hydroxy-1up-20(29)-ene-28-oic acid]	–	–	toxic reaction [2]: no obvious toxic reaction
–	CCO/N=C(\c1ccc(Br)cc1)C1CCN(C2(C)CCN(C(=O)c3c(C)cc[n+]([O-])c3C)CC2)CC1 [SCH-C, reference compound]	2583	–	–
